Laboratory results from PMC9468151, “Identification of a binding site on soluble RANKL that can be targeted to inhibit soluble RANK-RANKL interactions and treat osteoporosis” (Nature Communications, 2022).
“And” between values parts separate entries of the source, which are not always exact repeats. Equal entries are not always repeated.

System: T lymphocyte
Test: T lymphocyte cell proliferation assay (CFSE, CD4+/CD8+ flow cytometry)
Type: cell-based, human
Procedure: T lymphocyte cell proliferation assay was performed according to a reported method[58] with some modification. Briefly, 5 × 10^6 cells /mL cells were stained 2.5 μM CFSE (Tonbo Biosciences) and incubated at 37 °C for 12 min. Then washed and discarded the supernatant and adjusted the CFSE stained cell to 1.75 × 10^6 cells /mL. Cells were diluted in 1640 completed medium containing 5 μg/mL anti-CD3 antibody (Tonbo Biosciences) to 3 × 10^5 cells/mL and seed in a 96-well plate or 24-well plate that pre-packaged 0.4 μg/well anti-CD28 antibody and 1.6 μg anti-CD28 antibody (24-well) (Tonbo Biosciences). Cells were then cultured for 3 days, 9 days or 12 days. Subsequently, the proportion of CD4^+ and CD8^+ cells was determined by flow cytometry (Beckman Coulter, FC500) according to manufacturer’s instruction of PE-Cyanine7 anti-Human CD8a and PE anti-Human CD4 antibodies (Tonbo Biosciences). Data analyzing was performed by using CXP software (Beckman Coulter, Supplementary Fig. 8).

[1] = Cancer donor 1, 3 day, S3-15 0.2
[2] = Cancer donor 1, 3 day, S3-15 10
[3] = Healthy donor 1, 3 day, S3-15 0.2
[4] = Healthy donor 1, 3 day, S3-15 1
[5] = Healthy donor 1, 3 day, S3-15 5
[6] = Healthy donor 1, 3 day, S3-15 10
[7] = Healthy donor 1, 12 day, S3-15 0.2
[8] = Healthy donor 1, 12 day, S3-15 1
[9] = Healthy donor 1, 12 day, S3-15 5
[10] = Healthy donor 1, 12 day, S3-15 10
[11] = Healthy donor 2, 9 day, S3-15 0.2
[12] = Healthy donor 2, 9 day, S3-15 1
[13] = Healthy donor 2, 9 day, S3-15 5

CC(=O)/C(=N\Nc1ccccc1C(=O)O)C(=O)Nc1ccccn1 [S3-15]
CD8+ cells in total cells (%) [1]: 14.3% and 18.21% and 16% and 17.82% | CD8+cells in CFSE-cells (%) [1]: 44.38% and 49.16% and 53.36% and 45.53% | CFSE- cells in total cells (%) [1]: 7.99% and 11.49% and 11.51% and 10.07% | CD8+ cells in total cells (%) (Cancer donor 1, 3 day, S3-15 1): 15.56% and 19.33% and 22.39% and 19.99% | CD8+cells in CFSE-cells (%) (Cancer donor 1, 3 day, S3-15 1): 49.17% and 50.09% and 56.77% and 50.35% | CFSE- cells in total cells (%) (Cancer donor 1, 3 day, S3-15 1): 9.93% and 12.76% and 16.17% and 13.25% | CD8+ cells in total cells (%) (Cancer donor 1, 3 day, S3-15 5): 18.34% and 20.27% and 20.25% and 13.63% | CD8+cells in CFSE-cells (%) (Cancer donor 1, 3 day, S3-15 5): 56.42% and 54.7% and 55.11% and 51.68% | CFSE- cells in total cells (%) (Cancer donor 1, 3 day, S3-15 5): 12.69% and 14.11% and 13.95% and 8.72% | CD8+ cells in total cells (%) [2]: 19.25% and 18.44% and 17.07% and 14.93% | CD8+cells in CFSE-cells (%) [2]: 49.18% and 47.91% and 49.38% and 44.39% | CFSE- cells in total cells (%) [2]: 12.56% and 11.54% and 10.9% and 9.12% | CD4+cells in total cells (%) [3]: 68.58% and 70.02% and 62.64% and 62.46% | CD8+ cells in total cells (%) [3]: 18.64% and 19.25% and 16.01% and 13.6% | CD8+cells in CFSE-cells (%) [3]: 20.07% and 33.28% and 21.3% and 26.99% | CFSE- cells in total cells (%) [3]: 25.93% and 25.33% and 20.8% and 18.33% | CD4+cells in total cells (%) [4]: 63.51% and 67.38% and 70.68% and 68.88% | CD8+ cells in total cells (%) [4]: 12.65% and 15.35% and 17.94% and 14.88% | CFSE- cells in total cells (%) [4]: 21.49% and 20.46% and 25.21% and 18.85% | CD4+cells in total cells (%) [5]: 68.14% and 68.06% and 70.19% and 66.42% | CD8+ cells in total cells (%) [5]: 12.78% and 16.22% and 14.24% and 15.07% | CD8+cells in CFSE-cells (%) [5]: 16% and 25.32% and 17.12% and 15.1% | CFSE- cells in total cells (%) [5]: 22.52% and 22.58% and 17.52% and 21.09% | CD4+cells in total cells (%) [6]: 72.21% and 54.01% and 61.69% and 61.53% | CD8+ cells in total cells (%) [6]: 17.68% and 18.86% and 15.27% and 10.99% | CD8+cells in CFSE-cells (%) [6]: 13.48% and 20.77% and 16.03% | CFSE- cells in total cells (%) [6]: 22.22% and 20.93% and 15.94% | CD4+cells in total cells (%) [7]: 25.25% and 26.11% and 25.81% and 23.7% | CD8+ cells in total cells (%) [7]: 16% and 15.3% and 20.01% and 21.66% | CD8+cells in CFSE-cells (%) [7]: 74.91% and 72.37% and 73.55% and 71.27% | CFSE- cells in total cells (%) [7]: 16.3% and 15.37% and 18.72% and 19.27% | CD4+cells in total cells (%) [8]: 25.53% and 24.4% and 24.71% and 25.6% | CD8+ cells in total cells (%) [8]: 15.74% and 17.31% and 17.44% and 15.99% | CD8+cells in CFSE-cells (%) [8]: 74.2% and 73.02% and 72.56% and 72.37% | CFSE- cells in total cells (%) [8]: 15.48% and 17.29% and 17.32% and 15.2% | CD4+cells in total cells (%) [9]: 25.95% and 25.52% and 26.76% and 24.64% | CD8+ cells in total cells (%) [9]: 18.18% and 19.04% and 19.74% and 15.99% | CD8+cells in CFSE-cells (%) [9]: 75% and 70.17% and 74.02% and 72.37% | CFSE- cells in total cells (%) [9]: 16.98% and 16.53% and 18.76% and 15.2% | CD4+cells in total cells (%) [10]: 24.55% and 25.9% and 26.53% and 28.64% | CD8+ cells in total cells (%) [10]: 25.46% and 18.53% and 18.26% and 16.63% | CD8+cells in CFSE-cells (%) [10]: 73.6% and 72.27% and 73.36% and 76.51% | CFSE- cells in total cells (%) [10]: 23.52% and 17.38% and 18.28% and 16.8% | CD8+ cells in total cells (%) [11]: 60.09% and 60.2% and 40.04% | CD8+cells in CFSE-cells (%) [11]: 54.45% and 45.56% and 52.87% | CFSE- cells in total cells (%) [11]: 42.85% and 34.53% and 42.91% | CD8+ cells in total cells (%) [12]: 57.52% and 60.07% and 56.11% | CD8+cells in CFSE-cells (%) [12]: 48.8% and 34.73% and 39.45% | CFSE- cells in total cells (%) [12]: 48.46% and 65.6% and 38.41% | CD8+ cells in total cells (%) [13]: 39.84% and 41.04% and 43.72% | CD8+cells in CFSE-cells (%) [13]: 45.39% and 36.07% and 59.1% | CFSE- cells in total cells (%) [13]: 43.47% and 38.16% and 54.05%
